The subject of one data set is gastric secretion. The conditions noted are these: in animals, including man; cited from earlier work.
The conditions of data set [1]: in vivo; cited from earlier work.
In another data set the test system is histamine H2-receptor. The conditions noted are these: relative to another H2-antagonist; cited from earlier work.
In data set [2] the test system is gastric acid secretion. In words: Gastric Antisecretory Activity in the Heidenhain Pouch Dog. The class given is in vivo, female dogs. The conditions noted are these: for Potency Ratio [cimetidine = 1.0] (INTRAVENOUS) / Potency Ratio [cimetidine = 1.0] (ORAL): relative to cimetidine = 1.0. How it is done:
The dosage of the compounds of this invention will depend not only on such factors as the weight of the patient, but also on the degree of gastric acid inhibition desired and the potency of the particular compound being utilized. The decision as to the particular dosage to be employed is within the discretion of the physician. […] The usual human adult oral dose of cimetidine is 300 mg, given four times a day. The usual human adult starting oral dosages of the compounds of this invention are readily determined from their oral ED50 in this same test. […] Similar calculations may be made for iv dosages. These starting dosages (and the number of times administered per day) may, of course, be varied by titration of the dosage to the particular circumstances of the specific patient. […] The active ingredient will preferably be administered in equal doses from one to four times a day.
(§1) Med Res., 3, 86 (1975). […] Two of the standard animal models for determining gastric antisecretory activity of histamaine H2 -antagonists are the Gastric Fistula Rat and the Heidenhain Pouch Dog.
Determination of Gastric Antisecretory Activity in the Heidenhain Pouch Dog
Prior to surgery, hematology and blood chemistry profiles are obtained and an assessment made as to the general health of selected female dogs. Dogs are vaccinated with Tissue Vax 5 (DHLP-Pitman-Moore) and housed in general animal quarters for four weeks' observation so incipient diseases may become apparent. Dogs are fasted with water ad libitium 24 hours prior to surgery.
Anesthesia is induced with Sodium Pentothal (Abbott) 25-30 mg/kg iv. Subsequent anesthesia is maintained with methoxyflurane (Pitman-Moore). A mid-line linea alba incision from xiphoid to umbilicus provides good exposure and ease of closure. The stomach is pulled up into the operative field, the greater curvature stretched out at multiple points and clamps placed along the selected line of incision. The pouch is made from the corpus of the stomach so that true parietal cell juice is obtained. About 30% of the corpus volume is resected. The cannula is made of light-weight,biologically-inert material such as nylon or Delrin with dimensions and attachments after DeVito and Harkins [J. Appl. Physiol., 14, 138 (1959)]. Post operatively, dogs are medicated with antibiotics and an analgesic. They are allowed 2-3 months for recovery. Experiments are carried out in the following way: Dogs are fasted overnight (~18 hours) with water ad libitum prior to each experiment. The dogs are placed in a sling and a saphenous vein cannulated for drug administration. Histamine as the base (100 μg/kg/hr and chlorpheniramine maleate (0.25 mg/kg/hr) are infused continuously (in a volume of 6 ml/hr) with a Harvard infusion pump.
Ninety minutes' infusion are allowed for the dogs to reach a steady state of acid output. At this time the drug or normal saline (control) is administered concomitantly with the secretagogue in a volume of 0.5 ml/kg over a 30 second period. When oral studies are to be carried out, the drug is administered via gastric gavage in a volume of 5 ml/kg. Infusion of the secretagogue is continued and 15 minute samples of the gastric juice are taken for 4.5 hours. Each sample is measured to the nearest 0.5 ml and titratable acidity is determined by titrating a 1 ml sample to pH 7.0 with 0.2N NaOH, using an Autoburet and an electrometric pH meter (Radiometer). Titratable acid output is calculated in microequivalents by multiplying the volume in milliliters by the acid concentration in milliequivalents per liter.
Results are expressed as percent inhibition relative to control readings. Dose response curves are constructed and ED50 values are calculated by regression analyses. From 3 to 5 dogs are used at each dose level and a minimum of three dosage levels are utilized for determination of a dose response curve.

For data set [3] the following is noted: peptic ulcer disease, clinical evaluation; cited from earlier work.
Data set [4] concerns gastric acid secretion. As to the kind of experiment: Gastric Antisecretory Activity in the Gastric Fistula Rat. The data set is classed as in vivo, Male Long Evans rats. To be noted: sc, relative to cimetidine = 1.0, 95% confidence limits on following line. How it is done:
as §1
Determination of Gastric Antisecretory Activity in the Gastric Fistula Rat
Male Long Evans rats weighing about 240-260 grams at the time of cannula implantation are used. The design and implantation of the stainless steel cannula into the anterior wall of the fore-stomach are carried out essentially as described by Pare et al. [Laboratory Animal Science, 27, 244 (1977)]. The fistula components are designed and the operative procedure is carried out exactly as described in the above reference. Post operatively the animals are individually housed in solid bottom cages with sawdust and are allowed food and water ad libitum throughout the entire recovery period. Animals are not used for test purposes for at least 15 days after the operative procedure.
The animals are fasted but allowed water ad libitum for 20 hours before the testing procedure is to begin. […]
Titratable acid output is calculated in microequivalents by multiplying the volume in milliliters by the acid concentration in milliequivalents per liter.
Results are expressed as percent inhibition relative to control readings. Dose response curves are constructed and ED50 values are calculated by regression analyses. […]

As for `CNC(=S)NCCCCc1cnc[nH]1` [Burimamide], the inhibits gastric secretion entry in the data set on gastric secretion is recorded as “inhibits gastric secretion”. In addition, the oral absorption entry in data set [1] is on record as “poor”. Consider `CNC(=NC#N)NCCSCc1nc[nH]c1C` [Cimetidine], for which the “H2-antagonist potency / effectiveness” value in the data set with histamine H2-receptor is listed as “as effective an H2 -antagonist as metiamide”. In addition, the “ED50 (ORAL)” value in the data set on gastric acid secretion [2] (oral, histamine-stimulated, 95% confidence limits on following line) is 3.29 µmol/kg. The clinical effectiveness result in data set [3] is “effective therapeutic agent in the treatment of peptic ulcer disease”. Turning to `Nc1c(NCCCOc2cccc(CN3CCCCC3)c2)c(=O)c1=O` [Example 1, 1-Amino-2-[3-(3-piperidinomethylphenoxy)propylamino]cyclobutene-3,4-dione], the “Potency Ratio [cimetidine = 1.0] (INTRAVENOUS)” value (shortened to “Potency Ratio … (INTRAVENOUS)”) with gastric acid secretion [2] came to 87. Besides, the “Potency Ratio [cimetidine = 1.0] (ORAL)” value in the data set on gastric acid secretion [2] (oral) was determined as 25. `CN(C)Cc1ccc(CSCCNc2c(N)c(=O)c2=O)o1` [Example 2, 1-Amino-2-{2-[(5-dimethylaminomethyl-2-furyl)metylthio]ethylamino}cyclobutene-3,4-dione]: the “Potency Ratio … (INTRAVENOUS)” value in the data set with gastric acid secretion [2] is listed as ~ 20. Turning to `CN(C)Cc1ccc(CSCCNc2c(N)c(=O)c2=O)s1` [Example 3, 1-Amino-2-{2-[(5-dimethylaminomethyl-2-thienyl)methylthio]ethylamino}cyclobutene-3,4-dione], the “Potency Ratio [cimetidine = 1.0]” value in the data set with gastric acid secretion [4] was ~ 1. For `CN(C)Cc1cccc(OCCCNc2c(N)c(=O)c2=O)c1` [Example 9, 1-Amino-2-[3-(3-dimethylaminomethylphenoxy)propylamino]cyclobutene-3,4-dion], the “Potency Ratio … (INTRAVENOUS)” value with gastric acid secretion [2] is ~ 40. In addition, the “Potency Ratio [cimetidine = 1.0] (ORAL)” value with gastric acid secretion [2] (oral) is on record as ~ 20. With `Nc1c(NCCCOc2cccc(CN3CCCCCC3)c2)c(=O)c1=O` [Example 10i, 1-amino-2-[3-(3-hexamethyleneiminomethylphenoxy)propylamino]cyclobutene-3,4-dione], in the data set on gastric acid secretion [2], the “Potency Ratio … (INTRAVENOUS)” value was above 40. On to `CNC(=S)NCCSCc1nc[nH]c1C` [Metiamide], for which the “H2-antagonist potency / effectiveness” value in the data set with histamine H2-receptor is “more potent than burimamide”.

These data come from US4522943A, “Chemical compounds” (Bristol-Myers Company, priority 1982, dated 1985).
